In patent US20100298141A1, “SUBSTITUTED PYRIDINE N-OXIDE HERBICIDES” (E. I. DU PONT DE NEMOURS AND COMPANY, priority 2007, published 2010):

Tests used:
Assay in all cases: Test A pre-/postemergence greenhouse test
[1] = tested on: barnyardgrass; type: in vivo, Echinochloa crus-galli; conditions: for Plant response rating, Barnyardgrass: 0 to 100 scale where 0 is no effect and 100 is complete control; for Barnyardgrass plant response rating: 0 to 100 scale
Excerpt: (§1) Seeds of barnyardgrass (Echinochloa crus-galli), crabgrass (Digitaria sanguinalis), giant foxtail (Setaria faberi), morningglory (Ipomoea spp.), redroot pigweed (Amaranthus retroflexus), velvetleaf (Abutilon theophrasti), wheat (Triticum aestivum), and corn (Zea mays) were planted into a blend of loam soil and sand and treated preemergence with a directed soil spray using test compounds formulated in a non-phytotoxic solvent mixture which included a surfactant. At the same time these species were also treated with postemergence applications of test compounds formulated in the same manner. Plants ranged in height from two to ten cm and were in the one- to two-leaf stage for the postemergence treatment. Treated plants and untreated controls were maintained in a greenhouse for approximately ten days, after which time all treated plants were compared to untreated controls and visually evaluated for injury. […] A dash (-) response means no test results.

[2] = tested on: crabgrass; type: in vivo, Digitaria sanguinalis; conditions: for Plant response rating, Crabgrass, Large: 0 to 100 scale where 0 is no effect and 100 is complete control; for Crabgrass, Large plant response rating: 0 to 100 scale
Excerpt: as §1

[3] = tested on: giant foxtail; type: in vivo, Setaria faberi; conditions: for Plant response rating, Foxtail, Giant: 0 to 100 scale where 0 is no effect and 100 is complete control; for Foxtail, Giant plant response rating: 0 to 100 scale
Excerpt: as §1

[4] = tested on: morningglory; type: in vivo, Ipomoea spp.; conditions: for Plant response rating, Morningglory: 0 to 100 scale where 0 is no effect and 100 is complete control; for Morningglory plant response rating: 0 to 100 scale
Excerpt: as §1

[5] = tested on: redroot pigweed; type: in vivo, Amaranthus retroflexus; conditions: for Plant response rating, Pigweed: 0 to 100 scale where 0 is no effect and 100 is complete control; for Pigweed plant response rating: 0 to 100 scale
Excerpt: as §1

[6] = tested on: velvetleaf; type: in vivo, Abutilon theophrasti; conditions: for Plant response rating, Velvetleaf: 0 to 100 scale where 0 is no effect and 100 is complete control; for Velvetleaf plant response rating: 0 to 100 scale
Excerpt: as §1

[7] = tested on: wheat; type: in vivo, Triticum aestivum; conditions: for Plant response rating, Wheat: 0 to 100 scale where 0 is no effect and 100 is complete control; for Wheat plant response rating: 0 to 100 scale
Excerpt: as §1

[8] = tested on: corn; type: in vivo, Zea mays; conditions: for Plant response rating, Corn: 0 to 100 scale where 0 is no effect and 100 is complete control; for Corn plant response rating: 0 to 100 scale
Excerpt: as §1

[9] = Postemergence, 500 g ai/ha, 0 is no effect, 100 is complete control
[10] = Preemergence, 125 g ai/ha, 0 no effect, 100 complete control
[11] = Preemergence, 500 g ai/ha, 0 no effect, 100 complete control

SMILES | Plant response rating, Barnyardgrass ([1]; Postemergence, 125 g ai/ha) | Barnyardgrass plant response rating [1, 9] | Barnyardgrass plant response rating [1, 10] | Barnyardgrass plant response rating [1, 11] | Plant response rating, Crabgrass, Large ([2]; Postemergence, 125 g ai/ha) | Crabgrass, Large plant response rating [2, 9] | Crabgrass, Large plant response rating [2, 10] | Crabgrass, Large plant response rating [2, 11] | Plant response rating, Foxtail, Giant ([3]; Postemergence, 125 g ai/ha) | Foxtail, Giant plant response rating [3, 9] | Foxtail, Giant plant response rating [3, 10] | Foxtail, Giant plant response rating [3, 11] | Plant response rating, Morningglory ([4]; Postemergence, 125 g ai/ha) | Morningglory plant response rating [4, 9] | Morningglory plant response rating [4, 10] | Morningglory plant response rating [4, 11] | Plant response rating, Pigweed ([5]; Postemergence, 125 g ai/ha) | Pigweed plant response rating [5, 9] | Pigweed plant response rating [5, 10] | Pigweed plant response rating [5, 11] | further results
Cn1nc(C(F)(F)F)c(CS(=O)(=O)c2cc(C3CC3)cc[n+]2[O-])c1OC(F)F [Compound 118] | 50 | 70 | 70 | 100 | 40 | 80 | 90 | 100 | 40 | 80 | 90 | 100 | 20 | 60 | 40 | 100 | 50 | 80 | 100 | 100 | Plant response rating, Velvetleaf ([6]; Postemergence, 125 g ai/ha): 40; Velvetleaf plant response rating [6, 9]: 60; Velvetleaf plant response rating [6, 10]: 20; Velvetleaf plant response rating [6, 11]: 90; Plant response rating, Wheat ([7]; Postemergence, 125 g ai/ha): 40; Wheat plant response rating [7, 9]: 60; Wheat plant response rating [7, 10]: 40; Wheat plant response rating [7, 11]: 60; Plant response rating, Corn ([8]; Postemergence, 125 g ai/ha): 0; Corn plant response rating [8, 9]: 0; Corn plant response rating [8, 10]: 0; Corn plant response rating [8, 11]: 20
Cn1nc(C(F)(F)F)c(C[S+]([O-])c2cc(C3CC3)cc[n+]2[O-])c1OC(F)F (centres unmarked) [Compound 120] | 60 | 70 | 80 | 100 | 50 | 80 | 90 | 90 | 80 | 90 | 100 | 100 | 50 | 80 | 80 | 90 | 60 | 80 | 100 | 100 | Plant response rating, Velvetleaf ([6]; Postemergence, 125 g ai/ha): 60; Velvetleaf plant response rating [6, 9]: 80; Velvetleaf plant response rating [6, 10]: 60; Velvetleaf plant response rating [6, 11]: 80; Plant response rating, Wheat ([7]; Postemergence, 125 g ai/ha): 40; Wheat plant response rating [7, 9]: 50; Wheat plant response rating [7, 10]: 50; Wheat plant response rating [7, 11]: 100; Plant response rating, Corn ([8]; Postemergence, 125 g ai/ha): 30; Corn plant response rating [8, 9]: 70; Corn plant response rating [8, 10]: 80; Corn plant response rating [8, 11]: 90
Cn1nc(C(F)(F)F)c(C[S+]([O-])c2cc(C3CC3)cc[n+]2[O-])c1OCC(F)(F)F (centres unmarked) [Compound 121] | 50 | 70 | 100 | 100 | 30 | 80 | 100 | 100 | 50 | 80 | 100 | 100 | 40 | 60 | 40 | 90 | 60 | 70 | 100 | 100 | Plant response rating, Velvetleaf ([6]; Postemergence, 125 g ai/ha): 40; Velvetleaf plant response rating [6, 9]: 70; Velvetleaf plant response rating [6, 10]: 60; Velvetleaf plant response rating [6, 11]: 80; Plant response rating, Wheat ([7]; Postemergence, 125 g ai/ha): 30; Wheat plant response rating [7, 9]: 50; Wheat plant response rating [7, 10]: 60; Wheat plant response rating [7, 11]: 100; Plant response rating, Corn ([8]; Postemergence, 125 g ai/ha): 20; Corn plant response rating [8, 9]: 60; Corn plant response rating [8, 10]: 60; Corn plant response rating [8, 11]: 90
CCCc1cc[n+]([O-])c([S+]([O-])Cc2c(C(F)(F)F)nn(C)c2OCC(F)(F)F)c1 (centres unmarked) [Compound 114] | 50 | 80 | 90 | 100 | 50 | 80 | 90 | 100 | 80 | 90 | 100 | 100 | 60 | 70 | 70 | 90 | 70 | 90 | 100 | 100 | Plant response rating, Velvetleaf ([6]; Postemergence, 125 g ai/ha): 50; Velvetleaf plant response rating [6, 9]: 60; Velvetleaf plant response rating [6, 10]: 60; Velvetleaf plant response rating [6, 11]: 80; Plant response rating, Wheat ([7]; Postemergence, 125 g ai/ha): 50; Wheat plant response rating [7, 9]: 70; Wheat plant response rating [7, 10]: 60; Wheat plant response rating [7, 11]: 90; Plant response rating, Corn ([8]; Postemergence, 125 g ai/ha): 60; Corn plant response rating [8, 9]: 70; Corn plant response rating [8, 10]: 30; Corn plant response rating [8, 11]: 80
